The values below come from patent US20150306107A1, “SAA Derivative Compound Restores eNOS And Inhibits Oxidative Stress-Induced A Diseases In Hypoxia” (JANSFAT BIOTECHNOLOGY CO., LTD., priority 2014, published 2015).

Assay [1] deals with eNOS. Put plainly: Immunohistochemistry of eNOS in isolated pulmonary artery after short-term hypoxia. The assay is classed as cell-based, rat. As to conditions: short-term acute hypoxia; 40, 80 μM. On the procedure: (§1) In our in vitro short-term experiment, isolated rat pulmonary artery was grown under normoxia (20% O2) or hypoxia (1% O2) at 37° C. for 24 hrs as was previously done (Wu BN, et al. Int J Immunopathol Pharmacol 24:925, 2011). The heart weight and body weight ratio (HW/BW) of the rats treated with one of SPAAX-1, SPAAX-1 RX complex, Sildenafil or Sildenafil RX complex each measured on the 21st hypoxic day. All animal care and the experimental protocols of this study were approved by the Animal Care and Use Committee of the Kaohsiung Medical University. Male Wistar rats (200-250 g), provided by the National Laboratory Animal Breeding and Research Center (Taipei, Taiwan), were housed under constant temperature and controlled illumination. Food and water were available ad libitum.
(§2) For histological analysis, the rat pulmonary right lung sections or pulmonary artery were fixed in 4% formaldehyde for 1 hour at 4° C. After washing with phosphate buffer saline (PBS), they were sent for paraffin-embedded serial-sections. Serial cross-sections 7 μm thick were obtained from the cross-section of each pulmonary artery. Tissue sections were deparaffinized and rehydrated in an ethanol series. After tissue rehydration, endogenous peroxidase activity was quenched with 3% hydrogen peroxide for 30 minutes, and the sections were gently washed in PBS. […]

For assay [2], the system named is VEGF. Put plainly: Immunohistochemistry of VEGF in isolated pulmonary artery after short-term hypoxia. The assay is classed as cell-based, rat. The conditions noted are these: short-term acute hypoxia; 40, 80 μM. On the procedure:
as §1, §2

Assay [3] has as its system eNOS. Put plainly: Western blotting of eNOS expression in isolated rat pulmonary artery ring, short-term (acute) hypoxia or normoxia. The conditions noted are these: isolated pulmonary artery, acute hypoxia. The assay is classed as cell-based. On the procedure:
as §1
(§3) Whole right lung tissues of hypoxia-treated and untreated rats were isolated and cut into small strips and placed into an extraction buffer (Tris 10 mM, pH 7.0, NaCl 140 mM, PMSF 2 mM, DTT 5 mM, NP-40 0.5%, pepstatin A 0.05 mM and leupeptin 0.2 mM) for protein extraction, and then centrifuged at 12,500 g for 30 min. To measure the expression levels of the proteins, the total proteins were extracted and Western blotting analysis was performed as described previously (Bivalacqua T J, et al., 2013, TJ PLoSONE 8: e68028. doi:10.1371/journal. pone.0068028). Briefly, the protein extract was boiled to a ratio of 4:1 with a sample buffer (Tris 100 mM, pH 6.8, glycerol 20%, SDS 4% and bromophenol blue 0.2%). Electrophoresis was performed using 10% SDS-polyacrylamide gel (2 hr, 100 V, 40 mA, […] protein per lane). Separated proteins were transferred to PVDF membranes treated with 5% fat-free milk powder to block the nonspecific IgGs (90 min, 100 V) and incubated for one hour with a specific protein antibody. The blot was then incubated with anti-mouse or anti-goat IgG linked to alkaline phosphatase (1:1000) for 1 hr. Immunoreactive bands were visualized using horseradish peroxidase-conjugated secondary antibodies and subsequent electrochemiluminescence (ECL) detection (GE Healthcare Bio-Sciences Corp., Piscataway, N.J., U.S.A.). Mouse or rabbit monoclonal antibody of eNOS (Upstate, N.Y., U.S.A.), sGCα (Sigma-Adrich, CA, U.S.A., sGCβ (Santa Cruz, Calif., U.S.A.), PDE-5A (BD Tansduction, San Jose, Calif., U.S.A.), PKG (Calbiochem, San Diego, Calif., U.S.A.) ROCKII (Upstate, N.Y., U.S.A.), RhoA (Santa Cruze, Calif., U.S.A.) and the loading control protein β-actin (Sigma-Adrich, MO, U.S.A.) were used in our Western blot analysis.
(§4) The Western blotting analysis measurements were performed as per lung tissue.

Assay [4] concerns VEGF. Put plainly: Western blotting of VEGF expression in isolated rat pulmonary artery ring, short-term (acute) hypoxia. As to conditions: isolated pulmonary artery. The assay is classed as cell-based. On the procedure:
as §1, §3, §4

Assay [5] has as its system sGCα1. In words: Western blotting of sGCα1 expression in isolated pulmonary artery, short-term hypoxia. The assay is classed as cell-based, rat. On the procedure:
as §1
Whole right lung tissues of hypoxia-treated and untreated rats were isolated and cut into small strips and placed into an extraction buffer (Tris 10 mM, pH 7.0, NaCl 140 mM, PMSF 2 mM, DTT 5 mM, NP-40 0.5%, pepstatin A 0.05 mM and leupeptin 0.2 mM) for protein extraction, and then centrifuged at 12,500 g for 30 min. To measure the expression levels of the proteins, the total proteins were extracted and Western blotting analysis was performed as described previously (Bivalacqua T J, et al., 2013, TJ PLoSONE 8: e68028. doi:10.1371/journal. pone.0068028). […]
Background: In western blotting, separated proteins are transferred to a membrane and probed.

Assay [6] concerns hypoxic rats. Put plainly: Hemodynamics of rats with hypoxic PAH, chronic hypoxia 21 days. The assay is classed as in vivo, rat. As to conditions: 5 mg/kg/day, p.o. An excerpt: Int J Immunopathol Pharmacol 24:925, 2011). The heart weight and body weight ratio (HW/BW) of the rats treated with one of […] complex, Sildenafil or Sildenafil RX complex each measured on the 21st hypoxic day. All animal care and the experimental protocols of this study were approved by the Animal Care and Use Committee of the Kaohsiung Medical University. Male Wistar rats (200-250 g), provided by the National Laboratory Animal Breeding and Research Center (Taipei, Taiwan), were housed under constant temperature and controlled illumination. Food and water were available ad libitum. Normoxic rats were housed in room temperature air at normal atmospheric pressure (760 mm Hg). […] After completion of the exposure, tissues were prepared as indicated for contraction measurements, Western blot analysis, RNA extraction, or morphological analysis. […] Their breathing was normal and their body temperature was maintained at 37° C. […] The animals were then sacrificed by the administration of an overdose of urethane.

Assay [7] deals with hypoxic rats. In words: Pulmonary artery wall thickness and muscularization (HE staining) after long-term hypoxia. The assay is classed as in vivo, rat. On the procedure: (§5) The right lobes of the rat lungs and heart of six rats from each group were cut and soaked in formalin, dehydrated through graded alcohols, and embedded in paraffin wax. The lung tissue specimens fixed with formalin (4%) were embedded in paraffin for one hour at 4° C., cut into 4-μm-thick sections, and subjected to H&E staining before examination by light microscope. In our histopathological study, we measured the thickening of the medial wall of the small intrapulmonary arteries under an Eclipse TE2000-S (Nikon) microscope. In the heart tissues, the 4-μm-thick paraffin sections were cut from paraffin-embedded tissue blocks and de-paraffinized by immersion in xylene and rehydrated as previously described (Bivalacqua T J, et al., PLoSONE 8: e68028. doi:10.1371/journal. pone.0068028). The slices were then dyed with H&E. After gently rinsing with water, each slide was dehydrated through graded alcohols and finally soaked in xylene twice. The relative cardiac weight of right ventricle (RV)/[left ventricle (LV)+intraventricular septum (S)] ratio (i.e. right heart index) was calculated using right ventricle/left ventricle+septum (RV/LV+S). Measurements were obtained with Histolab software (Microvision Instruments, Evry, France).

The test system of assay [8] is hypoxic rats. Put plainly: Right ventricular hypertrophy (RV/LV+S, right heart index) after long-term hypoxia. The assay is classed as in vivo, rat. As to conditions: compared to the hypoxia state. On the procedure: as §5
For assay [9], the system named is eNOS. In words: Immunohistochemistry of eNOS in pulmonary artery wall after long-term hypoxia. The assay is classed as in vivo, rat. On the procedure:
(§6) For histological analysis, the rat pulmonary right lung sections or pulmonary artery were fixed in 4% formaldehyde for 1 hour at 4° C. After washing with phosphate buffer saline (PBS), they were sent for paraffin-embedded serial-sections. Serial cross-sections 7 μm thick were obtained from the cross-section of each pulmonary artery. Tissue sections were deparaffinized and rehydrated in an ethanol series. After tissue rehydration, endogenous peroxidase activity was quenched with 3% hydrogen peroxide for 30 minutes, and the sections were gently washed in PBS. Non-specific binding was blocked by incubation with 1% nonimmune bovine serum albumin (BSA) in PBS for 30 minutes at room temperature.
(§7) The tissue sections were incubated for 1 hour at room temperature with antibody against VEGF (ab1442, Millipore) or against eNOS (ab5589, Abcam) diluted 1:200 in PBS with 1% BSA. After being washed with PBS, the sections were incubated for 1 hour at room temperature with biotinylated goat antibody against rabbit (Dako, E-0432) and diluted 1:200 in PBS for 30 minutes at room temperature. The reaction was visualized by the addition of 3-3-diaminobenzidine (DAB) in a working solution of DAB substrate kit for peroxidase (vector lab, SK-4100) at room temperature for 5 minutes. The sections were washed in PBS for 10 minutes between each step, and counterstained with haematoxylin. […]

Assay [10] relates to VEGF. Put plainly: Immunohistochemistry of VEGF in pulmonary artery wall after long-term hypoxia. The assay is classed as in vivo, rat. On the procedure: as §6, §7
The subject of assay [11] is eNOS. In words: Western blotting of eNOS in lung tissue after long-term hypoxia. The assay is classed as in vivo, rat. As to conditions: hypoxia 21 days; compared to normoxia control.
Assay [12] concerns sGCα1. In words: Western blotting of sGCα1 in lung tissue after long-term hypoxia. The assay is classed as in vivo, rat. As to conditions: hypoxia 21 days; compared to normoxia control.
The test system of assay [13] is PKG. Put plainly: Western blotting of PKG in lung tissue after long-term hypoxia. The assay is classed as in vivo, rat. The conditions noted are these: hypoxia 21 days. On the procedure: as §3, with “Mouse or rabbit monoclonal antibody of eNOS (Upstate, N.Y., U.S.A.), sGCα (Sigma-Adrich, CA, U.S.A., sGCβ (Santa Cruz, Calif., U.S.A.), PDE-5A (BD Tansduction, San Jose, Calif., U.S.A.), PKG (Calbiochem, San Diego, Calif., U.S.A.) ROCKII (Upstate, N.Y., U.S.A.), RhoA (Santa Cruze, Calif., U.S.A.) and the loading control protein β-actin (Sigma-Adrich, MO, U.S.A.) were used in our Western blot analysis.” left out

The subject of assay [14] is ROCK II. In words: Western blotting of ROCK II in lung tissue after long-term hypoxia. The assay is classed as in vivo, rat. The conditions noted are these: hypoxia 21 days; hypoxia 144.7±12.6%.
Assay [15] relates to VEGF. In words: Western blotting of VEGF in lung tissue after long-term hypoxia. The assay is classed as in vivo, rat. As to conditions: hypoxia 21 days; hypoxia 168.9±24.6%.
In assay [16] the test system is PDE5A. The conditions noted are these: hypoxia 21 days; % of the normal level; hypoxia 43.8±12.6%.
The subject of assay [17] is reactive oxygen species (ROS) of lung tissues. As to conditions: long-term hypoxia.
Protocol: In our in vivo hypoxic experiments, 10-week old male Wistar rats were equally divided into four groups: a normoxia group, a hypoxia group, a hypoxia+SPAAX-1 or SPAAX-1 RX complex group, and a hypoxia+Sildenafil or Sildenafil RX complex group. All the rats were maintained on a 12-h light/12-hr dark cycle at 25±1° C. and were provided with food and water ad libitum. The normoxia group was housed in standard normoxic conditions and the other three treated groups were continuously housed in a hypoxic chamber (10% O2) for 21 days, except for a 30-min interval each day when the chamber was cleaned (FIG. 2). During which, a normoxic gas mixture was prepared from compressed air.
Pulmonary ROS was measured using 2′-7′-dichloro-fluorescein (H2DCF-DA, Molecular Probe, USA). Briefly, 10 μl of lung tissue extract was diluted 100-fold with cold PBS and labelled with 5 μmol/L 2′-7′-dichlorofluorescein, and the mixture was incubated at 37° C. for 30 minutes and put in a centrifuge (1000 rpm) for 5 min. Fluorescence was measured at 485 nm excitation and 530 nm emission to determine the concentration of H2O2 (FLUOstar Galaxy, Germany).
Assay [18] relates to NOx in lung tissue. As to conditions: 21 days of hypoxia; control group 100%, hypoxia 59.8±3.7%.
Protocol: All the rats were maintained on a 12-h light/12-hr dark cycle at 25±1° C. and were provided with food and water ad libitum. The normoxia group was housed in standard normoxic conditions and the other three treated groups were continuously housed in a hypoxic chamber (10% O2) for 21 days, except for a 30-min interval each day when the chamber was cleaned (FIG. 2). During which, a normoxic gas mixture was prepared from compressed air.
Production of NO, represented by its metabolite nitrate+nitrite (NOx), in lung tissue extracts was determined using the Griess method (Chung H H et al, Br J Pharmacol 160: 971, 2010; Vascular Pharmacology 53: 239, 2010). The three step Greiss test converts nitrate (NO3^−) into nitrite (NO2^−), resulting in a total NO2^− concentration from a standard calibration curve. The lung tissue extracts were homogenized, washed with PBS and incubated in a lysis buffer in addition to a protease inhibitor cocktail (Sigma, St. Louis, Mo.) to obtain the extracts of lung proteins. […] The samples were then incubated (25° C, 10 min) with Griess reagent [N-(1-naphthyl)-ethylenediamine: 0.2% (w/v), sulphanilamide: 2% (w/v), solubilized in double-distilled water: 95% and phosphoric acid: 5% (v/v)] and the absorbance measured at 540 nm. […]

For the molecule “L-sodium ascorbate+L-ascorbic acid buffer [ascorbic/ascorbate buffer]”, the “IHC of eNOS in isolated pulmonary artery” value in assay [1] was “reduced”. Moreover, the “IHC of VEGF in isolated pulmonary artery” value in [2] is listed as “reduced”.

On to `CCCc1nn(C)c2c(=O)[nH]c(-c3cc(S(=O)(=O)N4CCN(C)CC4)ccc3OCC)nc12.O=C1OC(C(O)CO)C(O)=C1O` [Sildenafil ascorbate complex], for which the “eNOS in acute hypoxia” value in assay [3] is “restored”. Besides, the “VEGF in acute hypoxia” value in assay [4] was “inhibited”. Moreover, the SGC-a in hypoxia result in [5] is “neither SPAAX-1 ascorbate complex nor Sildenafil ascorbate complex significantly affected”. The “BW (body weight)” value in [6] was found to be 275.1 ± 10.4 g. For the same molecule, in assay [6] (normoxia 12.9 ± 0.9, hypoxia 26.5 ± 0.6), the “MPAP (mean pulmonary arterial pressure)” value amounted to 19.8±0.7 mmHg. Also, the “hypoxia-induced pulmonary artery wall thickness” value in assay [7] (hypoxia 21 days, 5 mg/kg/day, hypoxia 165.8±5.4%) is listed as “inhibited”. Besides, the “muscularizations of distal pulmonary artery (HE staining)” value in assay [7] (hypoxic rats, versus vehicle only) is “significantly lower”. Further, the “thickness of Right ventricular” value in assay [8] was “reduced”. Moreover, the “eNOS immunostaining reactivity of pulmonary artery” value in assay [9] is reported as “restored the decay of eNOS”. Moreover, the “VEGF immunostaining reactivity of pulmonary artery” value in [10] is listed as “reduced”. Further, the “eNOS expression in lung tissue” value in assay [11] stood at 102.6±7.7%. In assay [12], the “sGCα1 expression in lung tissue” value amounted to 72.0±4.7%. The “PKG expression in lung tissue” value in [13] is reported as 68.7±3.7%. Besides, the “ROCKII expression in lung tissue” value in assay [14] turned out to be 97.4±10.9%. Further, the “VEGF expression in lung tissue” value in assay [15] is recorded as 125.7±22.5%. In addition, in assay [16], the “PDE5A expression in lung tissue” value turned out to be 109.0±3.8%. The “hypoxia-induced increase of dichlorofluorescein (ROS of lung tissues)” value in [17] was “reduced”. Further, the “levels of NOx in lung tissue” value in assay [18] is 84.5±14.2%.
